From patent publication US20210395239A1 (Hoffmann-La Roche Inc., priority 2018, published 2021) come the findings set out here.

Structures are written as SMILES.

The target in this assay is T1, hTLR9 (Homo sapiens, UniProt Q9NR96).
T1 sequence (Q9NR96 26-1032): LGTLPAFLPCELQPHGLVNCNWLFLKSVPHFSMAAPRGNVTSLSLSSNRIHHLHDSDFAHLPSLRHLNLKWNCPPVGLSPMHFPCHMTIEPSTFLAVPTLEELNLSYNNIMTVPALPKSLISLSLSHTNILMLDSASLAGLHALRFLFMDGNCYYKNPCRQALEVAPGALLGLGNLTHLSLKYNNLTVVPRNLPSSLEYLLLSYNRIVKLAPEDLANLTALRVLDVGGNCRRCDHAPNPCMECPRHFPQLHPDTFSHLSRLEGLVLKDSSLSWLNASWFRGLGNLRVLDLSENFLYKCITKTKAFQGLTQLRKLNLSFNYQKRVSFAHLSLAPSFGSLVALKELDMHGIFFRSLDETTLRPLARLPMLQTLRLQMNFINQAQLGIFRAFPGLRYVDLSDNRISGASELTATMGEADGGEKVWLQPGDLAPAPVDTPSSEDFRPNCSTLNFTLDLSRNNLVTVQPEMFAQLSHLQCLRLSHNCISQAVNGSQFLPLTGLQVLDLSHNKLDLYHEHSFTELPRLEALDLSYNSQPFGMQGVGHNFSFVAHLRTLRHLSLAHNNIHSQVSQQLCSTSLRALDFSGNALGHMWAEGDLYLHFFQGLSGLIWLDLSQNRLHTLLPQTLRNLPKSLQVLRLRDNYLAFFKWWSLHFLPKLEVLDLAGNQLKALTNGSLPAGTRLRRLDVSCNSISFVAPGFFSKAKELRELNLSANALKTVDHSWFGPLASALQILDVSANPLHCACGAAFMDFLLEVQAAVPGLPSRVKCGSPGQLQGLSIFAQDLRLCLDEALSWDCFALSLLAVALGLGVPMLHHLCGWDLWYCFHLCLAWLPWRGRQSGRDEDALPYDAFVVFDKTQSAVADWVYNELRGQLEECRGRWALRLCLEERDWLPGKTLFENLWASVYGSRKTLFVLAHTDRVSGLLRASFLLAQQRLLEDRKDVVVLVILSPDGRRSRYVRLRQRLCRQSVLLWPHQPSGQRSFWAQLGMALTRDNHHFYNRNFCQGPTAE
Put plainly: HEK293-Blue-hTLR-9 cells assay (SEAP reporter, ODN2006 stimulation). It is filed as cell-based. The arrangement: host or cells: HEK293 (HEK-Blue hTLR9). To be noted: HEK293-Blue-hTLR9 cells, ODN2006, 20 hrs; read-out: HEK/hTLR9 IC50. In outline: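 HEK293-Blue-hTLR9 cells with NF-κB/AP-1-driven SEAP reporter treated with serially diluted compound (1% DMSO final) plus ODN2006 for 20 h at 37 °C. Supernatant SEAP measured with QUANTI-Blue, 2 h at 37 °C, absorbance 620–655 nm; antagonism seen as reduced reporter signal.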
Take `C[C@@H]1CN(c2ccc(C#N)n3ncc(F)c23)C[C@H](CN2CCN(c3ccc(N4CCOC5(CNC5)C4)nc3)CC2)O1` [Example 178, 3-fluoro-4-[(2R,6S)-2-methyl-6-[[4-[6-(5-oxa-2,8-diazaspiro[3.5]nonan-8-yl)-3-pyridyl]piperazin-1-yl]methyl]morpholin-4-yl]pyrazolo[1,5-a]pyridine-7-carbonitrile]: the IC50 came out at 116 nM.

On to `C[C@@H]1CN(c2ccc(C#N)n3ncc(F)c23)C[C@H](CN2CCN(c3ccc(C[C@@H]4CNCCO4)cc3)CC2)O1` [Example 186, 3-fluoro-4-[(2R,6S)-2-methyl-6-[[4-[4-[[(2R)-morpholin-2-yl]methyl]phenyl]piperazin-1-yl]methyl]morpholin-4-yl]pyrazolo[1,5-a]pyridine-7-carbonitrile], for which the IC50 was 124 nM.

On to `C[C@@H]1CN(c2ccc(C#N)n3ncc(F)c23)C[C@H](CN2CCN(c3ccc([C@@H]4CNCCO4)c(F)c3)CC2)O1` [Example 184, 3-fluoro-4-[(2S,6R)-2-[[4-[3-fluoro-4-[(2R)-morpholin-2-yl]phenyl]piperazin-1-yl]methyl]-6-methyl-morpholin-4-yl]pyrazolo[1,5-a]pyridine-7-carbonitrile], for which the IC50 stood at 124 nM.

`C[C@@H]1CN(c2cc(=O)n(C)c3ncccc23)C[C@H](CN2CC(c3ccc(N4CC(C)(N)C4)cc3)C2)O1` [Example 176, 4-[(2S,6R)-2-[[3-[4-(3-amino-3-methyl-azetidin-1-yl)phenyl]azetidin-1-yl]methyl]-6-methyl-morpholin-4-yl]-1-methyl-1,8-naphthyridin-2-one]: the IC50 is 101 nM.

`Cc1nc(N2CCNCC2)nc(N2CCN(C[C@H]3CN(c4ccc(C#N)c5ncccc45)C[C@@H](C)O3)CC2)c1C` [Example 46, 5-[(2S,6R)-2-[[4-(5,6-dimethyl-2-piperazin-1-yl-pyrimidin-4-yl)piperazin-1-yl]methyl]-6-methyl-morpholin-4-yl]quinoline-8-carbonitrile]: the IC50 was 157 nM.

For the compound `C[C@@H]1CN(c2ccc(C#N)n3ncc(F)c23)C[C@H](CN2CCN(c3ccc(N4CC5(CN(C)C5)C4)nc3)CC2)O1` [Example 170, 3-fluoro-4-[(2R,6S)-2-methyl-6-[[4-[6-(6-methyl-2,6-diazaspiro[3.3]heptan-2-yl)-3-pyridyl]piperazin-1-yl]methyl]morpholin-4-yl]pyrazolo[1,5-a]pyridine-7-carbonitrile], the IC50 is 70 nM.

`Cc1cc(N2CCN(C[C@H]3CN(c4ccc(C#N)c5ncccc45)C[C@@H](C)O3)CC2)nc(N2CCNCC2)n1` [Example 47, 5-[(2R,6S)-2-methyl-6-[[4-(6-methyl-2-piperazin-1-yl-pyrimidin-4-yl)piperazin-1-yl]methyl]morpholin-4-yl]quinoline-8-carbonitrile]: the IC50 came to 67 nM.

`C[C@@H]1CN(c2cc(=O)n(C)c3ncccc23)C[C@H](CN2CC(c3ccc(N4C[C@H]5NCCO[C@@H]5C4)cc3)C2)O1` [Example 182, 4-[(2S,6R)-2-[[3-[4-[(4aR,7aR)-3,4,4a,5,7,7a-hexahydro-2H-pyrrolo[3,4-b][1,4]oxazin-6-yl]phenyl]azetidin-1-yl]methyl]-6-methyl-morpholin-4-yl]-1-methyl-1,8-naphthyridin-2-one]: the IC50 is 39 nM.

Regarding `C[C@@H]1CN(c2ccc(C#N)c3ncccc23)C[C@H](CN2CCN(c3ccc(N4CC(N)C(F)C4)nc3)CC2)O1` (stereo partly drawn) [Example 44, 5-[(2S,6R)-2-[[4-[6-(3-amino-4-fluoro-pyrrolidin-1-yl)-3-pyridyl]piperazin-1-yl]methyl]-6-methyl-morpholin-4-yl]quinoline-8-carbonitrile], the IC50 came to 164 nM.

`C[C@@H]1CN(c2ccc(C#N)c3ncccc23)C[C@H](CN2CCN(c3cc(N4CCNCC4)ncn3)CC2)O1` [Example 18, 5-[(2R,6S)-2-methyl-6-[[4-(6-piperazin-1-ylpyrimidin-4-yl)piperazin-1-yl]methyl]morpholin-4-yl]quinoline-8-carbonitrile]: the IC50 amounted to 52 nM.

Regarding `C[C@@H]1CN(c2ccc(C#N)c3ncccc23)C[C@H](CN2CCN(c3cccc(N[C@H]4CNC[C@@H]4F)n3)CC2)O1` [Example 35, 5-[(2S,6R)-2-[[4-[6-[[(3S,4S)-4-fluoropyrrolidin-3-yl]amino]-2-pyridyl]piperazin-1-yl]methyl]-6-methyl-morpholin-4-yl]quinoline-8-carbonitrile], the IC50 is 147 nM.

On to `C[C@@H]1CN(c2ccc(C#N)c3ncccc23)C[C@H](CN2CCN(c3cccc(N4CCC(N)CC4)n3)CC2)O1` [Example 36, 5-[(2S,6R)-2-[[4-[6-(4-amino-1-piperidyl)-2-pyridyl]piperazin-1-yl]methyl]-6-methyl-morpholin-4-yl]quinoline-8-carbonitrile], for which the IC50 came out at 118 nM.

On to `C[C@@H]1CN(c2ccc(C#N)c3ncccc23)C[C@H](CN2CCN(c3ccc([C@@H]4CNCCO4)cc3)CC2)O1` [Example 19, 5-[(2R,6S)-2-methyl-6-[[4-[4-[(2R)-morpholin-2-yl]phenyl]piperazin-1-yl]methyl]morpholin-4-yl]quinoline-8-carbonitrile], for which the IC50 is 91 nM.

Consider `Cc1cc(N2CCN(C[C@H]3CN(c4ccc(C#N)c5nccnc45)C[C@@H](C)O3)CC2)nc(N2CCNCC2)n1` [Example 64, 8-[(2R,6S)-2-methyl-6-[[4-(6-methyl-2-piperazin-1-yl-pyrimidin-4-yl)piperazin-1-yl]methyl]morpholin-4-yl]quinoxaline-5-carbonitrile], for which the IC50 is 35 nM.

As for `C[C@@H]1CN(c2ccc(C#N)c3ncccc23)C[C@H](CN2CCN(c3nc(N4CCNCC4)ncc3C#N)CC2)O1` [Example 50, 5-[(2S,6R)-2-[[4-(5-cyano-2-piperazin-1-yl-pyrimidin-4-yl)piperazin-1-yl]methyl]-6-methyl-morpholin-4-yl]quinoline-8-carbonitrile], the IC50 was 126 nM.

In the case of `C[C@@H]1CN(c2ccc(C#N)n3ncc(F)c23)C[C@H](CN2CCN(c3ccc(N4CC5(CNCCO5)C4)nc3)CC2)O1` [Example 169, 3-fluoro-4-[(2R,6S)-2-methyl-6-[[4-[6-(5-oxa-2,8-diazaspiro[3.5]nonan-2-yl)-3-pyridyl]piperazin-1-yl]methyl]morpholin-4-yl]pyrazolo[1,5-a]pyridine-7-carbonitrile], the IC50 stood at 78 nM.
